Consider 15 compounds from PubChem BioAssay (NCI).

Structures are written as SMILES. Several values for one entry are separate records, joined by “and”; a condition that tells them apart may be missing. Equal values may be shown once.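 Briefly, cells in 96-well plates were exposed to five compound concentrations for 48 h, and endpoints were estimated by linear interpolation. GI50 = concentration required for 50% inhibition of growth. TGI is the concentration that stops growth completely.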

Test systems include M14 melanoma; SNB-19 CNS; U251 CNS; NCI-H522 lung; NCI-H226 lung; PC-3 prostate; RPMI-8226 leukemia; IGROV1 ovarian; NCI-H460 lung; UO-31 renal.
Experiment in all cases: NCI-60 cell line screen, 48 h

Regarding `C[C@]12CC[C@@H]3c4ccc(O)cc4CC[C@H]3[C@@H]1CC[C@@H]2NS(=O)(=O)c1cccc(Cl)c1`, the GI50 in the experiment with M14 melanoma was 2.34 µM; in the experiment on SNB-19 CNS, 3.87 µM; in the experiment with U251 CNS, 2.26 µM; in the experiment on NCI-H522 lung, 1.91 µM; with NCI-H226 lung, 1.9 µM; in the experiment with PC-3 prostate, 2.98 µM. Further, the GI50 is 2.97 µM in the experiment with RPMI-8226 leukemia, 4.23 µM with IGROV1 ovarian, 2.24 µM in the experiment on NCI-H460 lung and 2.01 µM with UO-31 renal. Moreover, the TGI came to 6.35 µM with M14 melanoma; 14.4 µM in the experiment on SNB-19 CNS; 5.48 µM in the experiment on U251 CNS; 7.15 µM in the experiment on NCI-H522 lung; 4.61 µM with NCI-H226 lung; 11.9 µM with PC-3 prostate. Besides, the TGI in the experiment with RPMI-8226 leukemia was found to be 11.3 µM; in the experiment on IGROV1 ovarian it was 16.8 µM; in the experiment with NCI-H460 lung it was 5.02 µM; with UO-31 renal, 8.75 µM.
Take `CC(=Nc1ccccc1)C1=C(O)C(Cc2cccc(F)c2)NC1=O` (stereo not given): the GI50 with M14 melanoma was 0.0487 µM; in the experiment on SNB-19 CNS, 0.156 µM; in the experiment on U251 CNS it was 0.0702 µM; with NCI-H522 lung, 0.0286 µM; in the experiment on NCI-H226 lung it was 5.25 µM; in the experiment on PC-3 prostate, 0.0399 µM. For the same compound, the GI50 is 0.0525 µM in the experiment on RPMI-8226 leukemia, 0.0854 µM in the experiment with IGROV1 ovarian, 0.0403 µM with NCI-H460 lung and 0.0789 µM in the experiment with UO-31 renal. The TGI in the experiment with M14 melanoma is > 100 µM; in the experiment on SNB-19 CNS, > 100 µM; in the experiment on U251 CNS, > 100 µM; with NCI-H522 lung, 0.182 µM; in the experiment on NCI-H226 lung, > 100 µM; in the experiment with PC-3 prostate, > 100 µM. Further, the TGI in the experiment on RPMI-8226 leukemia, with IGROV1 ovarian, in the experiment with NCI-H460 lung and in the experiment with UO-31 renal was > 100 µM in each case.
For the compound `CCCCCCCN(CCCCCCC)C(=N)c1ccnc2ccccc12`, the GI50 in the experiment with M14 melanoma is 1.33 µM; with SNB-19 CNS it was 1.79 µM; with U251 CNS it was 1.66 µM; in the experiment on NCI-H522 lung, 1.65 µM; with NCI-H226 lung, 1.88 µM; in the experiment with PC-3 prostate, 1.39 µM. The GI50 was 1.65 µM with RPMI-8226 leukemia, 1.6 µM in the experiment on IGROV1 ovarian, 1.69 µM with NCI-H460 lung and 1.09 µM with UO-31 renal. In addition, the TGI with M14 melanoma is 2.76 µM; in the experiment with SNB-19 CNS, 3.68 µM; in the experiment with U251 CNS, 3.11 µM; in the experiment on NCI-H522 lung, 3.41 µM; with NCI-H226 lung it was 3.78 µM; in the experiment with PC-3 prostate, 2.96 µM. For the same compound, the TGI came out at 4.21 µM in the experiment with RPMI-8226 leukemia, 3.37 µM with IGROV1 ovarian, 3.27 µM in the experiment with NCI-H460 lung and 2.41 µM in the experiment on UO-31 renal.
As to `O=C1NC(=O)[C@@]2(CC[C@@H](O)C2)c2ccncc21`, the TGI in the experiment with M14 melanoma, with SNB-19 CNS, in the experiment with U251 CNS, in the experiment on NCI-H522 lung, in the experiment with NCI-H226 lung and in the experiment on PC-3 prostate was > 100 µM in each case. In addition, the TGI with IGROV1 ovarian, in the experiment on NCI-H460 lung and in the experiment with UO-31 renal was > 100 µM throughout.
In the case of `CC(=O)O[C@@]12CO[C@@H]1C[C@H](O)[C@@]1(C)C(=O)[C@H](O)C3=C(C)[C@@H](OC(=O)[C@H](O)[C@@H](NC(=O)OC(C)(C)C)c4ccccc4)C[C@@](O)([C@@H](OC(=O)c4ccccc4)C12)C3(C)C` (stereo not given in full), the GI50 with SNB-19 CNS is 0.031 µM; with U251 CNS, < 0.005 µM; in the experiment with NCI-H226 lung, 12.8 µM; with PC-3 prostate, < 0.005 µM and 0.0218 µM; with RPMI-8226 leukemia, < 0.005 µM; with IGROV1 ovarian it was 0.0357 µM. Moreover, the GI50 was < 0.005 µM with NCI-H460 lung; 0.372 µM and 0.192 µM with UO-31 renal. The TGI in the experiment with SNB-19 CNS was > 100 µM; in the experiment on U251 CNS, 50 µM and > 100 µM; in the experiment on NCI-H522 lung it was 52.3 µM; in the experiment on NCI-H226 lung it was > 100 µM; in the experiment with PC-3 prostate, 50 µM and 80.8 µM; in the experiment on RPMI-8226 leukemia, 34 µM and 24.5 µM. In addition, the TGI was > 100 µM in the experiment on IGROV1 ovarian; 20.1 µM and > 100 µM in the experiment with NCI-H460 lung; 50 µM and 81.8 µM in the experiment with UO-31 renal.
With `O=C1CSC(c2ccc(-c3nc4ccccc4[nH]3)cc2)=N1`, the GI50 in the experiment with M14 melanoma was 19.7 µM; with SNB-19 CNS it was > 50 µM; in the experiment with U251 CNS, 17.4 µM; in the experiment on NCI-H522 lung, 37.3 µM; with PC-3 prostate, > 50 µM; with RPMI-8226 leukemia, 11.7 µM. Moreover, the GI50 with IGROV1 ovarian was 21.9 µM; with NCI-H460 lung, 3.27 µM; in the experiment with UO-31 renal, 19.8 µM. Also, the TGI in the experiment with M14 melanoma, in the experiment with SNB-19 CNS, with U251 CNS, in the experiment on NCI-H522 lung, in the experiment on PC-3 prostate and in the experiment on RPMI-8226 leukemia was > 50 µM each time. Besides, the TGI with IGROV1 ovarian, with NCI-H460 lung and in the experiment with UO-31 renal was > 50 µM throughout.
`COc1cc2c3c(n(CCCCNC(=O)OC(C)(C)C)c(=O)c2cc1OC)-c1cc2c(cc1C3=O)OCO2`: the GI50 in the experiment on M14 melanoma, in the experiment on SNB-19 CNS, with U251 CNS, with NCI-H522 lung, in the experiment with NCI-H226 lung and in the experiment with PC-3 prostate was > 100 µM in each case. The GI50 is > 100 µM with IGROV1 ovarian, 5.66 µM with NCI-H460 lung and > 100 µM with UO-31 renal. Also, the TGI in the experiment with M14 melanoma, with SNB-19 CNS, with U251 CNS, in the experiment on NCI-H522 lung, in the experiment on NCI-H226 lung and in the experiment with PC-3 prostate was > 100 µM throughout. Moreover, the TGI in the experiment with IGROV1 ovarian, in the experiment on NCI-H460 lung and in the experiment on UO-31 renal was > 100 µM throughout.
For `CCN(CC)CCC(=O)OC1C(C)=CC(C)C(=O)CC(C(C)CC2CCC(O)C(OC)C2)OC(=O)C2CCCCN2C(=O)C(=O)[C@@]2(O)OC(CCC2C)CC(OC)\C(C)=C/C=C/C=C/C(C)CC(C)C(=O)C1OC` (stereo not given in full), the TGI in the experiment on M14 melanoma was determined as 22.6 µM; in the experiment on SNB-19 CNS it was 21.6 µM; in the experiment with U251 CNS, 23.1 µM; in the experiment with NCI-H522 lung it was 26.5 µM; in the experiment on NCI-H226 lung, 26.8 µM; in the experiment with PC-3 prostate, 22.4 µM. The TGI was determined as 43.2 µM in the experiment on RPMI-8226 leukemia, 14.7 µM with IGROV1 ovarian and 23.8 µM in the experiment with NCI-H460 lung.
For `O=C1NC(O)c2ccccc2O1` (stereo not given), the TGI in the experiment with M14 melanoma, in the experiment on SNB-19 CNS, with U251 CNS, in the experiment with NCI-H522 lung, in the experiment with NCI-H226 lung and in the experiment with PC-3 prostate was > 100 µM in each case. Moreover, the TGI in the experiment on IGROV1 ovarian, with NCI-H460 lung and with UO-31 renal was > 100 µM in each case.
`COc1cc(-c2nn(-c3cccc(NC(=O)NCCNS(=O)(=O)c4ccc(Cl)cc4)c3)cc2-c2ccncc2)ccc1Cl`: the GI50 was 0.423 µM in the experiment on M14 melanoma; 1.16 µM in the experiment on SNB-19 CNS; 0.494 µM in the experiment on U251 CNS; 0.311 µM with NCI-H522 lung; 1.45 µM in the experiment on NCI-H226 lung; 0.49 µM with PC-3 prostate. In addition, the GI50 was 1.18 µM in the experiment on IGROV1 ovarian, 0.413 µM in the experiment with NCI-H460 lung and 2.45 µM in the experiment with UO-31 renal. Moreover, the TGI is 2.42 µM in the experiment with M14 melanoma; > 100 µM in the experiment with SNB-19 CNS; 2.09 µM with U251 CNS; 1.35 µM in the experiment on NCI-H522 lung; 14.3 µM with NCI-H226 lung; 9.55 µM in the experiment with PC-3 prostate. Also, the TGI is > 100 µM in the experiment on IGROV1 ovarian, 3.69 µM in the experiment on NCI-H460 lung and > 100 µM in the experiment on UO-31 renal.
On to `C#CCN(N=O)C(=O)NCCCCC(NC(=O)OCc1ccccc1)C(=O)OCc1ccccc1` (stereo not given), for which the TGI in the experiment with M14 melanoma was 68 µM; in the experiment on SNB-19 CNS, > 100 µM; in the experiment on U251 CNS, > 100 µM; with NCI-H522 lung it was 30 µM; in the experiment on NCI-H226 lung, > 100 µM; in the experiment on RPMI-8226 leukemia, > 100 µM. In addition, the TGI in the experiment on IGROV1 ovarian, in the experiment with NCI-H460 lung and in the experiment on UO-31 renal was > 100 µM throughout.
`O=S(=O)(c1ccccc1)c1nccs1`: the TGI in the experiment with M14 melanoma, with SNB-19 CNS, in the experiment with U251 CNS, with NCI-H522 lung, in the experiment on NCI-H226 lung and in the experiment with RPMI-8226 leukemia was > 100 µM in each case. The TGI in the experiment on IGROV1 ovarian, in the experiment on NCI-H460 lung and in the experiment with UO-31 renal was > 100 µM throughout.
Turning to `O=C1OC(c2ccccc2)(c2ccccc2)c2ccc3ccc(F)cc3c21`, the TGI in the experiment with M14 melanoma, in the experiment with SNB-19 CNS, in the experiment on U251 CNS, in the experiment on NCI-H522 lung, in the experiment with NCI-H226 lung and with RPMI-8226 leukemia was > 100 µM in each case. In addition, the TGI in the experiment on IGROV1 ovarian, with NCI-H460 lung and in the experiment with UO-31 renal was > 100 µM throughout.
As for `CCN(CC)CCCOc1ccc2ncnc(Nc3ccc(Oc4cccc(C(F)(F)F)c4)c(Cl)c3)c2c1`, the GI50 in the experiment with PC-3 prostate is 1.75 µM; in the experiment with NCI-H460 lung, 1.78 µM; in the experiment on UO-31 renal it was 1.06 µM. In addition, the TGI in the experiment with PC-3 prostate was 3.58 µM; with NCI-H460 lung, 3.33 µM; in the experiment with UO-31 renal, 2.26 µM.
Take `CCO/C(CCn1[nH]c(=O)c(Cl)c(Cl)c1=O)=N\NC(=O)C(=O)NN`: the TGI in the experiment on M14 melanoma, with SNB-19 CNS, in the experiment on U251 CNS, in the experiment on NCI-H522 lung, in the experiment on NCI-H226 lung and in the experiment with RPMI-8226 leukemia was > 100 µM throughout. In addition, the TGI in the experiment with IGROV1 ovarian, with NCI-H460 lung and in the experiment with UO-31 renal was > 100 µM in each case.
